Tests used:
Assay type in all cases: in vivo
[1] = test system: Echinochloa crus-galli (ECHCG); experiment: Example B pre-emergence herbicidal test, ECHCG; conditions: Echinochloa crus-galli, 312 h, rate 250 g/ha, evaluated after 13 days, 100=total damage to plant, 0=no damage to plant
Outline: (§1)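 Plants were rated 13 days after treatment, 0 = no damage to 100 = total damage. They were grown in a glasshouse at 24/16 °C, 14 h light, 65% humidity and watered twice daily. Pre-emergence spray was applied one day after sowing, formulated in acetone/water 50:50 with 0.5% Tween 20.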

[2] = test system: Echinochloa crus-galli (ECHCG); experiment: Example B post-emergence herbicidal test, ECHCG; conditions: Echinochloa crus-galli, 312 h, rate 250 g/ha, evaluated after 13 days, scale 0-100, read-out: Post-emergence activity ECHCG (100=total damage to plant; 0=no damage to plant)
Outline: (§2)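 Foliar application to 8-day-old pot-grown seedlings in a glasshouse (24/16 °C, 14 h photoperiod, 65% humidity). Spray solution was derived from an acetone/water (50:50) formulation with 0.5% Tween 20. Injury was assessed 13 days later on a 0–100 scale.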

[3] = test system: Lolium perenne (LOLPE); experiment: Example B post-emergence herbicidal test, LOLPE; conditions: Lolium perenne, 312 h, rate 250 g/ha, evaluated after 13 days, scale 0-100, read-out: Post-emergence activity LOLPE (100=total damage to plant; 0=no damage to plant)
Outline: as §2

[4] = test system: Winter Wheat variety 'Hereward' seed treated with cloquintocet mexyl; experiment: Example C crop damage test on Winter Wheat seed treated with safener cloquintocet mexyl, post-emergence; conditions: rate 250 g/ha, seed treated with cloquintocet mexyl 0.5 grams per kilogram of dry seed, evaluated after 13 days
Description: Seeds of the Winter Wheat variety ‘Hereward’ were seed treated with a wettable powder formulation of the cereal herbicide safener, cloquintocet mexyl, at a rate of 0.5 grams per kilogram of dry seed prior to the initiation of glasshouse testing. One seed was sown per 1.5 inch plastic pot into a sandy loam soil at a depth of 1 cm, 8 days prior to application of the test compounds and was watered and grown under controlled conditions in a glasshouse (at 24/16° C., day/night; 14 hours light; 65% humidity). The plants were sprayed Post-emergence with an aqueous spray solution derived from the formulation of the technical active ingredient in acetone/water (50:50) solution containing 0.5% Tween 20 (polyoxyethelyene sorbitan monolaurate, CAS RN 9005-64-5). The test plants were then grown in a glasshouse under controlled conditions in a glasshouse (at 24/16° C., day/night; 14 hours light; 65% humidity) and watered twice daily. After 13 days for pre and post-emergence, the test was evaluated (100=total damage to plant; 0=no damage to plant).

[5] = test system: Alopecurus myosuroides (ALOMY); experiment: Example B pre-emergence herbicidal test, ALOMY; conditions: Alopecurus myosuroides, 312 h, rate 250 g/ha, evaluated after 13 days, 100=total damage to plant, 0=no damage to plant
Outline: as §1

[6] = test system: Winter Wheat variety 'Hereward'; experiment: Example C crop damage test on Winter Wheat, post-emergence, no safener; conditions: Triticum aestivum, 312 h, rate 250 g/ha, evaluated after 13 days, read-out: Winter Wheat (Hereward) damage (100=total damage to plant; 0=no damage to plant)
Description: Seeds of the Winter Wheat variety ‘Hereward’ were sown in standard soil in pots. After 8 days cultivation under controlled conditions in a glasshouse (at 24/16° C., day/night; 14 hours light; 65% humidity), the plants were sprayed with an aqueous spray solution derived from the formulation of the technical active ingredient in acetone/water (50:50) solution containing 0.5% Tween 20 (polyoxyethelyene sorbitan monolaurate, CAS RN 9005-64-5). The test plants were then grown in a glasshouse under controlled conditions in a glasshouse (at 24/16° C., day/night; 14 hours light; 65% humidity) and watered twice daily. After 13 days for pre and post-emergence, the test was evaluated (100=total damage to plant; 0=no damage to plant).

[7] = test system: Lolium perenne (LOLPE); experiment: Example B pre-emergence herbicidal test, LOLPE; conditions: Lolium perenne, 312 h, rate 250 g/ha, evaluated after 13 days, 100=total damage to plant, 0=no damage to plant
Outline: as §1

[8] = test system: Avena fatua (AVEFA); experiment: Example B pre-emergence herbicidal test, AVEFA; conditions: Avena fatua, 312 h, rate 250 g/ha, evaluated after 13 days, 100=total damage to plant, 0=no damage to plant
Outline: as §1

[9] = test system: Avena fatua (AVEFA); experiment: Example B post-emergence herbicidal test, AVEFA; conditions: Avena fatua, 312 h, rate 250 g/ha, evaluated after 13 days, scale 0-100, read-out: Post-emergence activity AVEFA (100=total damage to plant; 0=no damage to plant)
Outline: as §2

[10] = test system: Alopecurus myosuroides (ALOMY); experiment: Example B post-emergence herbicidal test, ALOMY; conditions: Alopecurus myosuroides, 312 h, rate 250 g/ha, evaluated after 13 days, scale 0-100, read-out: Post-emergence activity ALOMY (100=total damage to plant; 0=no damage to plant)
Outline: as §2

SMILES	pest or weed control at 250 g/ha [1] [%]	pest or weed control at 250 g/ha [2] [%]	pest or weed control at 250 g/ha [3] [%]	Winter Wheat (Hereward) + cloquintocet mexyl damage (100=total damage to plant; 0=no damage to plant) [4]	pest or weed control at 250 g/ha [5] [%]	crop damage to winter wheat at 250 g/ha [6] [%]	pest or weed control at 250 g/ha [7] [%]	pest or weed control at 250 g/ha [8] [%]	pest or weed control at 250 g/ha [9] [%]	pest or weed control at 250 g/ha [10] [%]
Cc1cc(-c2ccccc2)cc(C)c1C1C(=O)CC(CC2CCOCC2)C1=O (centres unmarked) [Compound T67]	100	100	100	30	90	70	100	90	100	90
CCc1cc(C)cc(CC)c1C1C(=O)C(CC2CCOCC2)C(CC2CCOCC2)C1=O (centres unmarked) [Compound T12]	100	100	100	60	100	70	100	100	100	100
Cc1cc(C)c(C2C(=O)C/C(=C\C3CCOC3)C2=O)c(C)c1 (centres unmarked) [Compound T17]	100	100	100	50	100	70	100	100	100	90
Cc1cc(C)c(C2=C(OC(=O)OC(C)C)CC(CC3CCOCC3)C2=O)c(C)c1 (centres unmarked) [Compound P43]	100	100	100	40	100	50	100	100	90	100
Cc1cc(C)c(C2C(=O)CC(CC3CCCOC3)C2=O)c(C)c1 (centres unmarked) [Compound T16]	100	100	100	20	100	80	100	80	100	100
COC(=O)N1CCC(CC2CC(=O)C(c3c(C)cc(C)cc3C)C2=O)CC1 (centres unmarked) [Compound T98]	90	90	100	60	70	90	90	80	100	100
Cc1cc(C)c(C2C(=O)CC(CC3CCN(C(=O)C4CC4)CC3)C2=O)c(C)c1 (centres unmarked) [Compound T88]	80	90	90	50	90	70	100	90	100	90
Cc1cc(C)c(C2=C(OC(=O)C(C)(C)C)C/C(=C\C3CCOCC3)C2=O)c(C)c1 [Compound P11]	100	100	100	70	100	80	100	100	90	90
Cc1cc(C)c(C2C(=O)CC(CC3CCN(C(=O)c4ccccc4)C3)C2=O)c(C)c1 (centres unmarked) [Compound T41]	100	100	100	80	70	90	90	90	100	100
Cc1cc(C)c(C2C(=O)CC(CC3CCOC(C)(C)C3)C2=O)c(C)c1 (centres unmarked) [Compound T39]	100	100	100	70	100	80	100	100	100	90
CCCOC(=O)OC1=C(c2c(C)cc(C)cc2C)C(=O)C(CC2CCOC2)C1 (centres unmarked) [Compound P20]	80	100	100	0	100	40	100	90	90	100
Cc1cc(C)c(C2C(=O)CC(CC3COCCO3)C2=O)c(C)c1 (centres unmarked) [Compound T40]	100	100	100	10	100	60	100	80	90	80
CCCCCCC(=O)OC1=C(c2c(C)cc(C)cc2C)C(=O)C(CC2CCOC2)C1 (centres unmarked) [Compound P16]	100	100	100	0	100	70	100	90	100	100
Cc1cc(C)c(C2=C(OC(=O)c3ccccc3)CC(CC3CCOCC3)C2=O)c(C)c1 (centres unmarked) [Compound P44]	100	100	100	40	100	70	100	90	100	100
